The text below walks through data of US9351955B2, “Compounds and pharmaceutical compositions thereof for the treatment of cystic fibrosis” (Galapagos NV, priority 2013, dated 2016).

T1 sequence (P13569 with tags, fused parts or gaps DEL508-508): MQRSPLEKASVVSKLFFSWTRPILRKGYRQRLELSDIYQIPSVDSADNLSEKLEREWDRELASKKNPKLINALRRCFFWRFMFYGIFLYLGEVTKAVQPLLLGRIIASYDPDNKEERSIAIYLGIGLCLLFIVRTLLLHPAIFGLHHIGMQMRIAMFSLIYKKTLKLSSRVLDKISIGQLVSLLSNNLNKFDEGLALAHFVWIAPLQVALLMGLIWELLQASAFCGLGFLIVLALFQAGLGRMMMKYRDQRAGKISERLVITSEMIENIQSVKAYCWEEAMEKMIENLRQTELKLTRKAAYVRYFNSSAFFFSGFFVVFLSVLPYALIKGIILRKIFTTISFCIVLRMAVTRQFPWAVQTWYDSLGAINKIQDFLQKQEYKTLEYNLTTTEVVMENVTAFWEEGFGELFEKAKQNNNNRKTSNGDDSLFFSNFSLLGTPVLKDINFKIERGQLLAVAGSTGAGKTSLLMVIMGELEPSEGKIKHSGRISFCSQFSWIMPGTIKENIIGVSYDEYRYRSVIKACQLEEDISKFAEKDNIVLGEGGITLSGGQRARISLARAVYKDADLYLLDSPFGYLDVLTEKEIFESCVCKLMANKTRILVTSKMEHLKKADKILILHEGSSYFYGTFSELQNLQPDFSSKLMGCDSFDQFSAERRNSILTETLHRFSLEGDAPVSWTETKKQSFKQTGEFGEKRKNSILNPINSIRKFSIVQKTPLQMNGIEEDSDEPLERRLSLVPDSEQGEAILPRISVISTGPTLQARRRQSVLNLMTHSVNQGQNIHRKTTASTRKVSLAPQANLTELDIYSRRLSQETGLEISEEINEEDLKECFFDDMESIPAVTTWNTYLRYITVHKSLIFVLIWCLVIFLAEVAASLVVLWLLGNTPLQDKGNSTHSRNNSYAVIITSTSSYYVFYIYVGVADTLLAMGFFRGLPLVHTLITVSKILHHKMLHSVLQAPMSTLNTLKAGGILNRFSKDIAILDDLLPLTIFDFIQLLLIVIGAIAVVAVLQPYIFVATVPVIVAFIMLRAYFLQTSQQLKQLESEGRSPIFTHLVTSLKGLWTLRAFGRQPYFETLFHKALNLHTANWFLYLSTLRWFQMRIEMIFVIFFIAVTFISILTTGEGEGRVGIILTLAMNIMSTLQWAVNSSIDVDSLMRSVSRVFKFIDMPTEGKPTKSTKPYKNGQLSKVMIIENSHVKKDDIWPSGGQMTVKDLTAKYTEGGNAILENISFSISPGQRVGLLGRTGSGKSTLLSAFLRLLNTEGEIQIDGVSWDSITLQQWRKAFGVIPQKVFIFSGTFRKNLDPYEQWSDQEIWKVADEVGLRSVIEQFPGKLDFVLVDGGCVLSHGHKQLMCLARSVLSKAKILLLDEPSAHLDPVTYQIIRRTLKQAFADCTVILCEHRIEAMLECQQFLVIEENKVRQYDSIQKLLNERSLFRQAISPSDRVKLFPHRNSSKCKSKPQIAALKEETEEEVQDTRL

The assay concerns the target T1, CFTR ΔF508 mutant (Homo sapiens, UniProt P13569, DEL508-508).
T1 construct: expressed in transfected cells; host or cells: CFBE41o- (adenoviral transduction)
Put plainly: YFP-halide influx assay for the CFTR-ΔF508 mutation (384 well, CFBE41o- cells, FDSS/μCell). As to conditions: forskolin 10.67 μM, fluorescence after 36 seconds, read-out: EC50 measured by YFP-halide influx assay for the CFTR-ΔF508. The assay is classed as cell-based. The text has this:
6.2. YFP-Halide Influx Assay for the CFTR-ΔF508 Mutation
The YFP halide influx assay measures the functionality of the cystic fibrosis Transmembrane Conductance regulator (CFTR) channels in the cystic fibrosis bronchial epithelium cell line CFBE41o-. The assay is used to evaluate the capacity of compounds to increase the open probability of existing CFTR channels in the membrane. It makes use of the observation that the yellow fluorescent protein (YFP) variant YFP H148Q, I152L has its fluorescence substantially quenched by halide ions like Cl— and I— (Galietta et al., 2001; Nagai et al., 2002).
For this purpose, CFBE410-cells are seeded in 384 well plates (3000 CFBE cells/well). One day after seeding, the CFBE cells are transduced with adenoviral vectors that direct the expression of the CFTR ΔF508 mutant and of the YFP reporter. Cells are incubated at 27° C., 5% CO2 for 24 hours so as to allow for the proper folding and migration to the membrane of the CFTR channel or treated with a CFTR modulator during 24 h at 37° C.
The I— induced quenching of fluorescence is recorded […] immediately after injection of I— for 2 min on an FDSS/μCell (Hamamatsu). The capacity of a compound to increase the channel opening is directly correlated with the decrease in fluorescence, and is expressed as (1−(fluorescence after 36 seconds (F)/fluorescence before injection (F0))) and an EC50 can be derived from a (1−F/F0) vs compound concentration plot.
For orientation: EC50 means the concentration needed to bring the measured effect to its halfway point. Turning to `CC1(C)Cc2c(sc(NC(=O)[C@H]3C[C@@H]3CO)c2C(N)=O)C(C)(C)O1` [Compound 83, 2-[[(1S,2S)-2-(hydroxymethyl)cyclopropanecarbonyl]amino]-5,5,7,7-tetramethyl-4H-thieno[2,3-c]pyran-3-carboxamide], the EC50 was found to be 644 nM.
With `CC1(C)Cc2c(sc(NC(=O)c3cnc4c(c3)OCCO4)c2C(N)=O)C(C)(C)O1` [Compound 145, N-(3-carbamoyl-5,5,7,7-tetramethyl-4H-thieno[2,3-c]pyran-2-yl)-2,3-dihydro-[1,4]dioxino[2,3-b]pyridine-7-carboxamide], the EC50 turned out to be 154 nM.
To `CC(O)CC(=O)Nc1sc2c(c1C(N)=O)CC(C)(C)OC2(C)C` (stereo not drawn) [Compound 58, 2-(3-hydroxybutanoylamino)-5,5,7,7-tetramethyl-4H-thieno[2,3-c]pyran-3-carboxamide] belongs 178 nM; to `CC(C)(O)CC(=O)Nc1sc2c(c1C(N)=O)CC(C)(C)OC2(C)C` [Compound 56, 2-[(3-hydroxy-3-methyl-butanoyl)amino]-5,5,7,7-tetramethyl-4H-thieno[2,3-c]pyran-3-carboxamide], 79.3 nM; to `Cc1cc2nnc(C(=O)Nc3sc4c(c3C(N)=O)CC(C)(C)OC4(C)C)c(C)n2n1` [Compound 149, N-(3-carbamoyl-5,5,7,7-tetramethyl-4H-thieno[2,3-c]pyran-2-yl)-4,7-dimethyl-pyrazolo[5,1-c][1,2,4]triazine-3-carboxamide], 346 nM.
To `CC1(C)Cc2c(sc(NC(=O)C3CCC(=O)N3)c2C(N)=O)C(C)(C)O1` (stereo not drawn) [Compound 107, N-(3-carbamoyl-5,5,7,7-tetramethyl-4H-thieno[2,3-c]pyran-2-yl)-5-oxo-pyrrolidine-2-carboxamide] belongs 387 nM; to `CC1(C)Cc2c(sc(NC(=O)c3cnccn3)c2C(N)=O)C(C)(C)O1` [Compound 138, N-(3-carbamoyl-5,5,7,7-tetramethyl-4H-thieno[2,3-c]pyran-2-yl)pyrazine-2-carboxamide], 52.2 nM.
The figure for `CC1(C)Cc2c(sc(NC(=O)C3CC3F)c2C(N)=O)C(C)(C)O1` (single isomer, unassigned) [Compound 44, Cis-2-[[2-fluorocyclopropanecarbonyl]amino]-5,5,7,7-tetramethyl-4H-thieno[2,3-c]pyran-3-carboxamide] is 276 nM.
Regarding `CC1(C)Cc2c(sc(NC(=O)C3(CO)CC3(C)C)c2C(N)=O)C(C)(C)O1` (stereo not drawn) [Compound 91, 2-[[1-(hydroxymethyl)-2,2-dimethyl-cyclopropanecarbonyl]amino]-5,5,7,7-tetramethyl-4H-thieno[2,3-c]pyran-3-carboxamide], the EC50 was 64.1 nM.
As for `Cc1csc(C(=O)Nc2sc3c(c2C(N)=O)CC(C)(C)OC3(C)C)n1` [Compound 131, N-(3-carbamoyl-5,5,7,7-tetramethyl-4H-thieno[2,3-c]pyran-2-yl)-4-methyl-thiazole-2-carboxamide], the EC50 was 168 nM.
In the case of `Cc1noc(C)c1C(=O)Nc1sc2c(c1C(N)=O)CC(C)(C)OC2(C)C` [Compound 140, N-(3-carbamoyl-5,5,7,7-tetramethyl-4H-thieno[2,3-c]pyran-2-yl)-3,5-dimethyl-isoxazole-4-carboxamide], the EC50 was 144 nM.
Consider `CC1(C)Cc2c(sc(NC(=O)C3CCOC3)c2C(N)=O)C(C)(C)O1` (stereo not drawn) [Compound 163, 5,5,7,7-tetramethyl-2-(tetrahydrofuran-3-carbonylamino)-4H-thieno[2,3-c]pyran-3-carboxamide], for which the concentration for a half-maximal effect (EC50) worked out at 636 nM.
The figure for `Cc1oncc1C(=O)Nc1sc2c(c1C(N)=O)CC(C)(C)OC2(C)C` [Compound 146, N-(3-carbamoyl-5,5,7,7-tetramethyl-4H-thieno[2,3-c]pyran-2-yl)-5-methyl-isoxazole-4-carboxamide] is 202 nM; for `COCC(C)(O)C(=O)Nc1sc2c(c1C(N)=O)CC(C)(C)OC2(C)C` (single isomer, unassigned) [Compound 165, 2-[[2-hydroxy-3-methoxy-2-methyl-propanoyl]amino]-5,5,7,7-tetramethyl-4H-thieno[2,3-c]pyran-3-carboxamide] it is 145 nM.
The figure for `CC1(C)Cc2c(sc(NC(=O)C(O)C(F)(F)F)c2C(N)=O)C(C)(C)O1` (stereo not drawn) [Compound 167, 5,5,7,7-tetramethyl-2-[(3,3,3-trifluoro-2-hydroxy-propanoyl)amino]-4H-thieno[2,3-c]pyran-3-carboxamide] is 7.58 nM; for `Cc1ccn2c(=O)c(C(=O)Nc3sc4c(c3C(N)=O)CC(C)(C)OC4(C)C)cnc2c1` [Compound 144, N-(3-carbamoyl-5,5,7,7-tetramethyl-4H-thieno[2,3-c]pyran-2-yl)-8-methyl-4-oxo-pyrido[1,2-a]pyrimidine-3-carboxamide] it is 472 nM; for `COCC(=O)Nc1sc2c(c1C(N)=O)CC(C)(C)OC2(C)C` [Compound 160, 2-[(2-methoxyacetyl)amino]-5,5,7,7-tetramethyl-4H-thieno[2,3-c]pyran-3-carboxamide] it is 641 nM.
As to `C[C@H](O)C(=O)Nc1sc2c(c1C(N)=O)CC(C)(C)OC2(C)C` [Compound 153, 2-[[(2S)-2-hydroxypropanoyl]amino]-5,5,7,7-tetramethyl-4H-thieno[2,3-c]pyran-3-carboxamide], the EC50 came to 33.9 nM.
With `CCOc1cc(C(=O)Nc2sc3c(c2C(N)=O)CC(C)(C)OC3(C)C)n[nH]1` [Compound 54, 5-Ethoxy-1H-pyrazole-3-carboxylic acid (3-carbamoyl-5,5,7,7-tetramethyl-4,7-dihydro-5H-thieno[2,3-c]pyran-2-yl)-amide], the EC50 was found to be 8.51 nM.
With `Cn1ncc(C(=O)Nc2sc3c(c2C(N)=O)CC(C)(C)OC3(C)C)c1C(F)F` [Compound 118, N-(3-carbamoyl-5,5,7,7-tetramethyl-4H-thieno[2,3-c]pyran-2-yl)-5-(difluoromethyl)-1-methyl-pyrazole-4-carboxamide], the EC50 stood at 303 nM.
For `CCC(CO)C(=O)Nc1sc2c(c1C(N)=O)CC(C)(C)OC2(C)C` (stereo not drawn) [Compound 86, 2-[2-(hydroxymethyl)butanoylamino]-5,5,7,7-tetramethyl-4H-thieno[2,3-c]pyran-3-carboxamide], the EC50 was 160 nM.
Turning to `CC1(C)Cc2c(sc(NC(=O)C3(C)COC3)c2C(N)=O)C(C)(C)O1` [Compound 147, 5,5,7,7-tetramethyl-2-[(3-methyloxetane-3-carbonyl)amino]-4H-thieno[2,3-c]pyran-3-carboxamide], the EC50 was 169 nM.
Take `CC1(C)Cc2c(sc(NC(=O)C(CO)C(C)(C)C)c2C(N)=O)C(C)(C)O1` (stereo not drawn) [Compound 89, 2-[[2-(hydroxymethyl)-3,3-dimethyl-butanoyl]amino]-5,5,7,7-tetramethyl-4H-thieno[2,3-c]pyran-3-carboxamide]: the 50% effective concentration (EC50) was found to be 313 nM.
The figure for `CC1(C)Cc2c(sc(NC(=O)C3CCCO3)c2C(N)=O)C(C)(C)O1` (stereo not drawn) [Compound 162, 5,5,7,7-tetramethyl-2-(tetrahydrofuran-2-carbonylamino)-4H-thieno[2,3-c]pyran-3-carboxamide] is 602 nM; for `COCC(C)(O)C(=O)Nc1sc2c(c1C(N)=O)CC(C)(C)OC2(C)C` (single isomer, unassigned) [Compound 166] it is 116 nM.
To `COCC(C)(O)C(=O)Nc1sc2c(c1C(N)=O)CC(C)(C)OC2(C)C` (stereo not drawn) [Compound 155, 2-[(2-hydroxy-3-methoxy-2-methyl-propanoyl)amino]-5,5,7,7-tetramethyl-4H-thieno[2,3-c]pyran-3-carboxamide] belongs 71.5 nM; to `CC1(C)Cc2c(sc(NC(=O)c3n[nH]c4ncccc34)c2C(N)=O)C(C)(C)O1` [Compound 157, N-(3-carbamoyl-5,5,7,7-tetramethyl-4H-thieno[2,3-c]pyran-2-yl)-1H-pyrazolo[3,4-b]pyridine-3-carboxamide], 33.1 nM.
Regarding `CC1(C)Cc2c(sc(NC(=O)C3CC3F)c2C(N)=O)C(C)(C)O1` (single isomer, unassigned) [Compound 43, Cis-2-[[2-fluorocyclopropanecarbonyl]amino]-5,5,7,7-tetramethyl-4H-thieno[2,3-c]pyran-3-carboxamide], the concentration giving a half-maximal response (EC50) was determined as 495 nM.
To `CC1(C)Cc2c(sc(NC(=O)C3CCOCC3)c2C(N)=O)C(C)(C)O1` [Compound 158, 5,5,7,7-tetramethyl-2-(tetrahydropyran-4-carbonylamino)-4H-thieno[2,3-c]pyran-3-carboxamide] belongs 301 nM; to `COC(C)(C)C(=O)Nc1sc2c(c1C(N)=O)CC(C)(C)OC2(C)C` [Compound 164, 2-[(2-methoxy-2-methyl-propanoyl)amino]-5,5,7,7-tetramethyl-4H-thieno[2,3-c]pyran-3-carboxamide], 646 nM.
